In US20090176811A1, “Substituted 5,6,7,8-Tetrahydro-pyrido[4,3-d]pyrimidine-2-yl Compounds and 5,6,7,8-Tetrahydro-quinazoline-2-yl Compounds” (GRUENENTHAL GmbH, priority 2004, published 2009) one finds inhibition data, which are given here for 21 compounds.

For test [1], the target named is T1, mGluR5 receptor (Sus scrofa, UniProt I3LUI7).
T1 construct: 450 μg of protein from brain homogenate is incubated; from tissue; host or cells: pig brain hemispheres without medulla, cerebellum and pons
As to the kind of experiment: Affinity for the mGluR5 receptor ([3H]-MPEP binding, pig brain homogenate). The note with it: 10 μM compound, 15 nM [3H]-MPEP. As to the method:
III. Method for Determining Affinity for the mGluR5 Receptor
Pig brain homogenate is produced by homogenisation (Polytron Pt 3000, Kinematica AG, 10,000 rpm (revolutions per minute) for 90 seconds) of pig brain hemispheres without medulla, cerebellum and pons in a buffer of pH 8.0 (30 mM Hepes, Sigma, order number H3375+1 tablet Complete Roche Diagnostics, order number 1836145 made up to 100 ml) in a ratio of 1:20 (brain weight/volume) and differential centrifugation at 900 g and 40,000 g. 450 μg of protein from brain homogenate is incubated in each case in 250 μl incubation batches in 96-well microtitre plates with 15 nM ^3[H]-MPEP (Tocris, order number R1212) and the compounds to be investigated (in each case 10 μM in the test) in the above-stated buffer at room temperature for 60 minutes.
The batches are then filtered with the assistance of a Brandel Cell Harvester (Brandel, Grade Robotic 9600) on Unifilter plates with glass filter mats (Perkin Elmer, order number 6005177) and then rewashed 3 times with buffer of the above-stated composition using 250 μl per sample. The filter plates are then dried for 60 minutes at 55° C. Then 30 μl of Ultima Gold scintillating material (Packard BioScience, order number 6013159) is added per well and after 3 hours the samples are measured using the B counter ([…], Perkin Elmer). Nonspecific binding is determined by the addition of 10 μM 2-methyl-6-(phenylethynyl)-pyridine (Tocris, order number 1212).

Test [2] deals with T2, 5-HT transporter (Rattus norvegicus, UniProt P31652).
T2 construct: from tissue; host or cells: rat medulla and pons synaptosomes (P2 fraction)
The test is described as follows: 5-HT uptake inhibition in rat brain synaptosomes (medulla and pons). Type of test: biochemical. From the text:
(§1) I. Method for Determining Noradrenalin and 5-HT Uptake Inhibition:
(§2) Synaptosomes from rat brain regions are freshly isolated for in vitro studies, as described in the publication “The isolation of nerve endings from brain” by E. G. Gray and V. P. Whittaker, J. Anatomy 96, pages 79-88, 1962. The corresponding literature description is hereby introduced as a reference and is deemed to be part of the disclosure.
(§3) The tissue (hypothalamus for the determination of noradrenalin uptake inhibition and medulla and pons for the determination of 5-HT uptake inhibition) is homogenised in ice-cooled 0.32 M sucrose (100 mg of tissue/1 mL) in a glass homogeniser with Teflon pestle using five complete up and down strokes at 840 revolutions/minute.
(§4) The homogenate is centrifuged at 4° C. for 10 minutes at 1000 g. After subsequent centrifugation at 17000 g for 55 minutes, the synaptosomes (P2 fraction) are obtained, which are resuspended in 0.32 M […] (0.5 mL/100 mg of original weight).
(§5) The particular uptake is measured in a 96-well microtitre plate. The volume is 250 μl and the incubation proceeds at room temperature (approx. 20-25° C.) under an O2 atmosphere.
(§6) The incubation time is 7.5 minutes for [^3H]-NA and 5 minutes for [^3H]-5-HT.
(§7) The 96 samples are then filtered through a Unifilter GF/B microtitre plate (Packard) and washed with 200 mL of incubated buffer using a “Brabdel MPXRI-96T Cell-Harvester”. The Unifilter GF/B plate is dried for 1 hour at 55° C. The plate is then sealed with a Back seal (Packard) and 35 μl of scintillation fluid are added per well (Ultima Gold, Packard). After sealing with a top seal (Packard) and establishing an equilibrium (around 5 hours), radioactivity is determined in a “Trilux 1450 Microbeta” (Wallac).
(§8) The quantity of protein used in the above determination corresponds to the values known from the literature, as for example described in “Protein measurement with the folin phenol reagent”, Lowry et al., J. Biol. Chem., 193, 265-275, 1951.
(§9) A detailed description of the method may additionally be found in the literature, for example in M. Ch. Frink, H.-H. Hennies, W. Engelberger, M. Haurand and B. Wilffert (1996) Arzneim.-Forsch./Drug Res. 46 (III), 11, 1029-1036.
(§10) The corresponding literature descriptions are hereby introduced in each case as a reference and are deemed to be part of the present disclosure.
(§11) The following characteristics were determined for the NA or 5-HT transporter: […]

Test [3] concerns the target T3, NA transporter (Rattus norvegicus, UniProt Q63380).
T3 construct: from tissue; host or cells: rat hypothalamus synaptosomes (P2 fraction)
As to the kind of experiment: Noradrenalin uptake inhibition in rat brain synaptosomes (hypothalamus). The test is classed as biochemical.
Source text: as §1, §2, §3, §4, §5, §6, §7, §8, §9, §10, §11

T2 sequence (P31652 whole entry): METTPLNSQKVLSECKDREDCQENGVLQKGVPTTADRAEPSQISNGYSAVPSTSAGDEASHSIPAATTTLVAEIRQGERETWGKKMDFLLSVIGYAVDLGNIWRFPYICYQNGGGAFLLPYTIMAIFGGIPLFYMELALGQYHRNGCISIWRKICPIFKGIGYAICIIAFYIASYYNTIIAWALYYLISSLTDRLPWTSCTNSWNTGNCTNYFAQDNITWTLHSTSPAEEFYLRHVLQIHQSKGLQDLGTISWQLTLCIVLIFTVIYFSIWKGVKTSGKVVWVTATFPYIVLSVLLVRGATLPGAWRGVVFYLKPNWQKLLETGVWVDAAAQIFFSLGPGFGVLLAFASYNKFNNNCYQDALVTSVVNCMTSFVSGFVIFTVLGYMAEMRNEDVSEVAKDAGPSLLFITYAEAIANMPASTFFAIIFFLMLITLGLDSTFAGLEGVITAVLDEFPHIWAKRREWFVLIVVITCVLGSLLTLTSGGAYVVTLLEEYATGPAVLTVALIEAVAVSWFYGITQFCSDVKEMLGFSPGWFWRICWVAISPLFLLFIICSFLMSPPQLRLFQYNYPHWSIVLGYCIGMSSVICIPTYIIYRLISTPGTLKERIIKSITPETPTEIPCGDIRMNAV
T1 sequence (I3LUI7 19-1212): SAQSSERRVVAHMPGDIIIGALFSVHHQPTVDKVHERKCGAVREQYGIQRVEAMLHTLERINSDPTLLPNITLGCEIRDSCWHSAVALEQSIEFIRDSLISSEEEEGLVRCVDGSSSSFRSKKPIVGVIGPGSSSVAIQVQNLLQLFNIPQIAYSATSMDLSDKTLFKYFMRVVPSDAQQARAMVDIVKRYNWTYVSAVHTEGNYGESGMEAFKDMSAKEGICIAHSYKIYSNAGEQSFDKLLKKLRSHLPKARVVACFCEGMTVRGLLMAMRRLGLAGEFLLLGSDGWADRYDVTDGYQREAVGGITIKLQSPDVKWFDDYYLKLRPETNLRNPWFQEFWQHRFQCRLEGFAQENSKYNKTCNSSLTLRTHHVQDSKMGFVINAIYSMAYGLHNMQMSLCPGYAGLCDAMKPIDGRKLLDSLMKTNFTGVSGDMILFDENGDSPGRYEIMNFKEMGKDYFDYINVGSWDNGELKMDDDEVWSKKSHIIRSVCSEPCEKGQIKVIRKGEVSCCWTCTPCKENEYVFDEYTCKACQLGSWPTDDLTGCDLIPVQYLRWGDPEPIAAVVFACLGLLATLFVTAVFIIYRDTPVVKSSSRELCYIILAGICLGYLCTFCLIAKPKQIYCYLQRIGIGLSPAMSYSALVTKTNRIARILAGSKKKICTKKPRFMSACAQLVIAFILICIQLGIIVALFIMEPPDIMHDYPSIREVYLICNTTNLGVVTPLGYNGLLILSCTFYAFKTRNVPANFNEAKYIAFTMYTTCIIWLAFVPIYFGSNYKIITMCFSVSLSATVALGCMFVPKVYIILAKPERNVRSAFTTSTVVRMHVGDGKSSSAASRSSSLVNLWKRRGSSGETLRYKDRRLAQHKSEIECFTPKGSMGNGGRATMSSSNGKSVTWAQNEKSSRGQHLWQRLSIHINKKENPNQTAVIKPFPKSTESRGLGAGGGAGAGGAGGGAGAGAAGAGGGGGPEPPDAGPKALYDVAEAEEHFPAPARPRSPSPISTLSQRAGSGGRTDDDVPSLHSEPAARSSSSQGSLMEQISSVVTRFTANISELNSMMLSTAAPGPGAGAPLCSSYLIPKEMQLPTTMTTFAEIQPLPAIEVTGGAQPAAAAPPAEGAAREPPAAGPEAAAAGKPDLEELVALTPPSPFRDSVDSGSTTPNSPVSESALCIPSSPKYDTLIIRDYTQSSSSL
T3 sequence (Q63380 1-617): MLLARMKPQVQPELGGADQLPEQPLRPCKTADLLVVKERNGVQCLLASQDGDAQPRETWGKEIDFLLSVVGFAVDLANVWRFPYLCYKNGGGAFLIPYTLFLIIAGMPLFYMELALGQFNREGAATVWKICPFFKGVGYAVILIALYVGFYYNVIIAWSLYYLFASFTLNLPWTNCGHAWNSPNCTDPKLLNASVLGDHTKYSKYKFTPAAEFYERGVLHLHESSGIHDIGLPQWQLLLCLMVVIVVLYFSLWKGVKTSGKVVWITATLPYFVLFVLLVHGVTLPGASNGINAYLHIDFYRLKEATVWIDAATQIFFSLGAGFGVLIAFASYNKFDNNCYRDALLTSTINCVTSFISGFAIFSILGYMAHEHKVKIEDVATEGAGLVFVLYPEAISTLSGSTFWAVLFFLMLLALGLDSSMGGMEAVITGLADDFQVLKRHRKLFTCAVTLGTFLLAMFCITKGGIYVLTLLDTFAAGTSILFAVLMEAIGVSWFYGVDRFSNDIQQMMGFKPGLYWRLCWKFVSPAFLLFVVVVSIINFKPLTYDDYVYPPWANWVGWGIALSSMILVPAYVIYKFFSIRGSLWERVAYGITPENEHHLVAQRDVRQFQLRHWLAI

On to `Cc1nc(C(F)(F)F)ccc1C(=O)NC1CCc2nc(NC(=O)c3ccc(F)cc3)ncc2C1` (centres unmarked) [Example 197, N-[2-(4-fluoro-benzoylamino)-5,6,7,8-tetrahydro-quinazolin-6-yl]-2-methyl-6-trifluoromethyl-nicotinamide], for which the inhibition at 10 µM in test [1] was 32.1%. For the compound `CC(C)(C)OC(=O)N1CCC(C(=O)NC2CCc3nc(NC(=O)c4ccc(F)cc4)ncc3C2)CC1` (centres unmarked) [Example 194, 4-[2-(4-fluoro-benzoylamino)-5,6,7,8-tetrahydro-quinazolin-6-ylcarbamoyl]-piperidine-1-carboxylic acid tert-butyl ester], 10 µM produced 45.6% inhibition in test [1]. With `CCc1ccc(C(=O)Nc2ncc3c(n2)CCN(C(=O)c2ccc(-n4cccn4)cc2)C3)cc1` [Example 74, 4-ethyl-N-[6-(4-pyrazol-1-yl-benzoyl)-5,6,7,8-tetrahydro-pyrido[4,3-d]pyrimidin-2-yl]-benzamide], testing at 1 µM in test [2] gave an inhibition of 54%. The inhibition at 10 µM in test [3] amounted to 43%.

In test [1], `COc1cccc(C(=O)Nc2ncc3c(n2)CCN(S(=O)(=O)c2cc(Br)ccc2OC)C3)c1` [Example 129, N-[6-(5-bromo-2-methoxy-benzenesulfonyl)-5,6,7,8-tetrahydro-pyrido[4,3-d]pyrimidin-2-yl]-3-methoxy-benzamide] registered an inhibition at 10 µM of 51.1%. `O=C(Nc1ncc2c(n1)CCN(C(=O)Cc1ccc(Cl)cc1)C2)c1ccc(Cl)c(Cl)c1` [Example 126, 3,4-dichloro-N-{6-[2-(4-chloro-phenyl)-acetyl]-5,6,7,8-tetrahydro-pyrido[4,3-d]pyrimidin-2-yl}-benzamide] yielded an inhibition at 1 µM in test [2] of 55%. The compound further displayed an inhibition at 10 µM in test [3] of 89%. Regarding `CC(C)C(NC(=O)OCC1c2ccccc2-c2ccccc21)C(=O)NC1CCc2nc(NC(=O)c3cccs3)ncc2C1` (centres unmarked) [Example 139, (2-methyl-1-{2-[(thiophene-2-carbonyl)-amino]-5,6,7,8-tetrahydro-quinazolin-6-ylcarbamoyl}-propyl)-carbamic acid 9H-fluoren-9-ylmethyl ester], the inhibition at 10 µM in test [1] is 31%. For `CC(C)(C)c1ccc(C(=O)Nc2ncc3c(n2)CCN(S(=O)(=O)c2ccc([N+](=O)[O-])cc2)C3)cc1` [Example 83, 4-tert-butyl-N-[6-(4-nitro-benzenesulfonyl)-5,6,7,8-tetrahydro-pyrido[4,3-d]pyrimidin-2-yl]-benzamide], in test [2], at 1 µM the inhibition was 39%. Testing at 10 µM in test [3] gave an inhibition of 77%. As for `Cc1cccc(C(=O)Nc2ncc3c(n2)CCN(S(=O)(=O)c2cccc(C)c2)C3)c1` [Example 116, 3-methyl-N-[6-(toluene-3-sulfonyl)-5,6,7,8-tetrahydro-pyrido[4,3-d]pyrimidin-2-yl]-benzamide], 1 µM produced 31% inhibition in test [2]. For the same compound, the inhibition at 10 µM in test [3] was 52%.

`CCOc1ccccc1C(=O)Nc1ncc2c(n1)CCN(C(=O)c1sccc1Cl)C2` [Example 145, N-[6-(3-chloro-thiophene-2-carbonyl)-5,6,7,8-tetrahydro-pyrido[4,3-d]pyrimidin-2-yl]-2-ethoxy-benzamide] returned an inhibition at 10 µM in test [1] of 84.4%. As to `CCc1ccc(C(=O)Nc2ncc3c(n2)CCN(S(=O)(=O)c2ccsc2)C3)cc1` [Example 121, 4-ethyl-N-[6-(thiophene-3-sulfonyl)-5,6,7,8-tetrahydro-pyrido[4,3-d]pyrimidin-2-yl]-benzamide], the inhibition at 1 µM in test [2] was 52%. The inhibition at 10 µM in test [3] amounted to 92%. For `CC(C)(C)c1ccc(C(=O)Nc2ncc3c(n2)CCN(C(=O)c2csc4ccccc24)C3)cc1` [Example 184, N-[6-(benzo[b]thiophene-3-carbonyl)-5,6,7,8-tetrahydro-pyrido[4,3-d]pyrimidin-2-yl]-4-tert-butyl-benzamide], in that order: 48% and 69%. Compound `O=C(Nc1ncc2c(n1)CCN(C(=O)C1=Cc3ccccc3OC1)C2)c1ccc(F)c(F)c1` [Example 175, N-[6-(2H-chromene-3-carbonyl)-5,6,7,8-tetrahydro-pyrido[4,3-d]pyrimidin-2-yl]-3,4-difluoro-benzamide] had an inhibition at 1 µM in test [2] of 32%. This compound displayed an inhibition at 10 µM in test [3] of 46%.

On to `O=C(Nc1ncc2c(n1)CCN(C(=O)CCCCc1ccccc1)C2)c1ccccc1` [Example 190, N-[6-(5-phenyl-pentanoyl)-5,6,7,8-tetrahydro-pyrido[4,3-d]pyrimidin-2-yl]-benzamide], for which the inhibition at 1 µM in test [2] is 36%. Moreover, in test [3], the inhibition at 10 µM stood at 73%. In turn, `O=C(Nc1ncc2c(n1)CCN(C(=O)CCC1CCCC1)C2)c1ccncc1` [Example 132, N-[6-(3-cyclopentyl-propionyl)-5,6,7,8-tetrahydro-pyrido[4,3-d]pyrimidin-2-yl]-isonicotinamide] gave an inhibition at 10 µM in test [1] of 58.1%. Take `O=C(Nc1ncc2c(n1)CCC(NS(=O)(=O)c1ccc(Cl)s1)C2)c1ccc(F)cc1` (centres unmarked) [Example 202, N-[6-(5-chloro-thiophene-2-sulfonylamino)-5,6,7,8-tetrahydro-quinazolin-2-yl]-4-fluoro-benzamide]: testing at 10 µM in test [1] gave an inhibition of 33.1%. As for `Cc1cc(C)c(S(=O)(=O)N2CCc3nc(NC(=O)c4ccc(Cl)c(Cl)c4)ncc3C2)c(C)c1` [Example 95, 3,4-dichloro-N-[6-(2,4,6-trimethyl-benzenesulfonyl)-5,6,7,8-tetrahydro-pyrido[4,3-d]pyrimidin-2-yl]-benzamide], the inhibition at 1 µM in test [2] is 59%. The inhibition at 10 µM in test [3] was 72%.

With `Cc1cc(C)c(C)c(S(=O)(=O)N2CCc3nc(NC(=O)c4cccs4)ncc3C2)c1C` [Example 99, thiophene-2-carboxylic acid [6-(2,3,5,6-tetramethyl-benzenesulfonyl)-5,6,7,8-tetrahydro-pyrido[4,3-d]pyrimidin-2-yl]-amide], the inhibition at 1 µM in test [2] stood at 41%. Besides, the inhibition at 10 µM in test [3] amounted to 56%. The like results for `Cc1ccc(C(=O)N2CCc3nc(NC(=O)c4ccc(C(C)(C)C)cc4)ncc3C2)cc1[N+](=O)[O-]` [Example 92, 4-tert-butyl-N-[6-(4-methyl-3-nitro-benzoyl)-5,6,7,8-tetrahydro-pyrido[4,3-d]pyrimidin-2-yl]-benzamide] were, in that order, 66% and 35%. With `COc1ccccc1C(=O)Nc1ncc2c(n1)CCN(S(=O)(=O)c1c(C)cc(OC)c(C)c1C)C2` [Example 158, 2-methoxy-N-[6-(4-methoxy-2,3,6-trimethyl-benzenesulfonyl)-5,6,7,8-tetrahydro-pyrido[4,3-d]pyrimidin-2-yl]-benzamide], the inhibition at 1 µM in test [2] worked out at 55%. Moreover, in test [3], at 10 µM the inhibition was 36%. As for `O=C(Nc1ncc2c(n1)CCN(S(=O)(=O)c1cccc(Br)c1)C2)c1cccc(Cl)c1` [Example 125, N-[6-(3-bromo-benzenesulfonyl)-5,6,7,8-tetrahydro-pyrido[4,3-d]pyrimidin-2-yl]-3-chloro-benzamide], testing at 1 µM in test [2] gave an inhibition of 43%. Besides, the inhibition at 10 µM in test [3] came out at 70%. The like results for `O=C(Nc1ncc2c(n1)CCN(C(=O)Cc1c(Cl)cccc1Cl)C2)c1cccc(Cl)c1` [Example 187, 3-chloro-N-{6-[2-(2,6-dichloro-phenyl)-acetyl]-5,6,7,8-tetrahydro-pyrido[4,3-d]pyrimidin-2-yl}-benzamide] were, in that order, 29% and 100%.
